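Growth conditions: 96-well plates. Treatment: test compound, 48 hours, 5 concentrations. Analysis: linear interpolation between bracketing concentrations; unreached endpoints set to highest concentration. GI50 marks 50% less growth. TGI: concentration producing complete growth inhibition.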
Key:
Assay in all cases: NCI anticancer screen, dose series, 48 h
[1] = system: OVCAR-3 ovarian
[2] = system: KM12 colon
[3] = system: SF-295 CNS
[4] = system: SK-MEL-5 melanoma
[5] = system: BT-549 breast
[6] = system: SF-268 CNS
[7] = system: UO-31 renal
[8] = system: NCI-H226 lung
[9] = system: T-47D breast
[10] = system: HS 578T breast

SMILES | GI50 [1] [µM] | TGI [1] [µM] | GI50 [2] [µM] | TGI [2] [µM] | GI50 [3] [µM] | TGI [3] [µM] | GI50 [4] [µM] | TGI [4] [µM] | GI50 [5] [µM] | TGI [5] [µM] | GI50 [6] [µM] | TGI [6] [µM] | GI50 [7] [µM] | TGI [7] [µM] | GI50 [8] [µM] | TGI [8] [µM] | GI50 [9] [µM] | TGI [9] [µM] | GI50 [10] [µM] | TGI [10] [µM]
O=C(Nc1ccc(F)cc1F)c1cc(Cl)ccc1O | 0.955 | 16.8 | 2.31 | 7.68 | 1.56 | 3.16 | 0.608 | 2.03 | 0.62 | 3.31 | 1.3 | 11.6 | 1.15 | 6.18 | 1.29 | 5.73 | 0.473 | 5.5 | 0.978 | 7.25
O=C(O)/C=C\C(=O)Nc1ccccn1 | – | > 100 | – | > 100 | – | > 100 | – | > 100 | – | > 100 | – | > 100 | – | > 100 | – | > 100 | – | > 100 | – | > 100
C1=C/COCc2cc(ccc2OCCN2CCCC2)Nc2nccc(n2)-c2ccc(o2)COC/1 | 1.99 | 8.48 | 0.451 | 9.37 | 2.74 | 8.02 | 1.79 | 4.07 | 2.18 | 4.95 | 1.69 | 4.45 | 1.06 | 7.06 | 1.74 | 6.13 | 1.21 | 7.33 | 1.89 | 6.77
O=C(/C=C/c1ccc(C(F)(F)F)cc1)Nc1ccc(C=C2c3ccccc3C(=O)c3ccccc32)cc1 | 3.76 | 18 | 2.33 | 40.6 | 4.24 | > 100 | 2.71 | 13.4 | 3.33 | 48 | 14.3 | > 100 | 8.47 | > 100 | 14.2 | > 100 | 3.39 | 56.8 | 13.1 | > 100
CCOc1ccc(/C(C=O)=C(\Cl)c2ccc(OC)cc2)cc1 | – | > 100 | – | > 100 | – | > 100 | – | > 100 | – | > 100 | – | > 100 | – | > 100 | – | > 100 | – | > 100 | – | > 100
C#CCNC(=S)N/N=C(\C)c1ccccn1 | 0.0353 | 19.4 | 0.426 | > 100 | 0.706 | > 100 | 0.617 | 2.7 | 0.618 | > 100 | 0.517 | > 100 | 0.333 | > 100 | 0.406 | 3.33 | 0.0933 | > 100 | 9.84 | > 100
NC(=O)[C@@H](CC1CC1)[C@@H](CCC(F)(F)F)C(=O)N[C@H]1N=C(c2ccccc2)c2cccc(F)c2NC1=O | > 100 | > 100 | > 100 | > 100 | > 100 | > 100 | 17.7 | 35.1 | > 100 | > 100 | > 100 | > 100 | 75.3 | > 100 | > 100 | > 100 | 15.3 | 56.8 | > 100 | > 100

From PubChem BioAssay (NCI)
